Results from PubChem BioAssay (NCI).
“And” between values parts separate entries of the source, which are not always exact repeats. Identical values can stand only once.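 1) Cells in 96-well plates. 2) Compound, 48 h, 5 concentrations. 3) Linear interpolation between surrounding doses. 4) Unreached endpoint = highest concentration. At the GI50, growth is halved. Definition used: TGI = concentration required for complete inhibition of growth.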

Experiments:
Test in all cases: NCI-60 cell line screen, 48 h
HOP-62 NSCLC = test system: HOP-62 NSCLC
SR leukemia = test system: SR leukemia
SF-539 CNS = test system: SF-539 CNS
HS 578T breast = test system: HS 578T breast
CCRF-CEM leukemia = test system: CCRF-CEM leukemia
DU-145 prostate = test system: DU-145 prostate
HT29 colon = test system: HT29 colon
M14 melanoma = test system: M14 melanoma
NCI-H23 lung = test system: NCI-H23 lung
RXF 393 renal = test system: RXF 393 renal

Compound | TGI (HOP-62 NSCLC) | TGI (SR leukemia) | TGI (SF-539 CNS) | TGI (HS 578T breast) | TGI (CCRF-CEM leukemia) | TGI (DU-145 prostate) | TGI (HT29 colon) | TGI (M14 melanoma) | TGI (NCI-H23 lung) | TGI (RXF 393 renal) | GI50 (HOP-62 NSCLC) | GI50 (SR leukemia) | GI50 (SF-539 CNS) | GI50 (HS 578T breast) | GI50 (CCRF-CEM leukemia) | GI50 (DU-145 prostate) | GI50 (HT29 colon) | GI50 (M14 melanoma) | GI50 (NCI-H23 lung) | GI50 (RXF 393 renal)
Clc1ccc(-c2nnc(-c3c(Cl)c(Cl)c(Cl)c(Cl)c3-c3nc4ccccc4[nH]3)o2)cc1 | > 100 µM | > 100 µM | > 100 µM | > 100 µM | > 100 µM | > 100 µM | > 100 µM | > 100 µM | > 100 µM | > 100 µM |  |  |  |  |  |  |  |  |  | 
O=c1/c(=C/c2ccc([N+](=O)[O-])o2)sc2n1[C@@H](c1ccc3c(c1)OCO3)C=C(c1cc(F)c(Cl)cc1Cl)N=2 | 58.9 µM | > 100 µM | > 100 µM | > 100 µM | 10.5 µM | 79.8 µM | 46 µM | 31.8 µM | 46.8 µM | 43.2 µM |  |  |  |  |  |  |  |  |  | 
COc1cc2c(cc1OCCCN1CCN(c3ncnc4ccccc34)CC1)N=CC1CCCN1C2=O (stereo not drawn) | 0.278 µM | 0.0968 µM | 0.0696 µM | 0.0568 µM | 0.48 µM | 0.311 µM |  | 0.138 µM | 0.0819 µM | 0.0394 µM | 0.0282 µM | < 0.0149 µM | 0.0271 µM | < 0.0177 µM | < 0.0146 µM | 0.0278 µM | 0.0298 µM | 0.0303 µM | 0.0268 µM | 0.0205 µM
Nc1nc(=O)n(CC(O)CO)s1 (stereo not drawn) | > 100 µM | > 100 µM | > 100 µM |  | > 100 µM |  | > 100 µM | > 100 µM | > 100 µM | > 100 µM |  |  |  |  |  |  |  |  |  | 
N#C[S-].[Ce+3].c1cnc2c(c1)ccc1cccnc12.c1cnc2c(c1)ccc1cccnc12.c1cnc2c(c1)ccc1cccnc12 | 35.7 µM | > 100 µM | 16 µM |  |  |  | 23.9 µM | 3.42 µM | 75.6 µM |  |  |  |  |  |  |  |  |  |  | 
Fc1c(F)c(C(F)(F)F)c(F)c(F)c1N/N=C/c1cn(Cc2ccccc2)c2ccccc12 | 22.4 µM | 67 µM | 42.1 µM | > 100 µM | 48.4 µM | > 100 µM | 49.3 µM | 43 µM | 79.9 µM | 41.5 µM |  |  |  |  |  |  |  |  |  | 
O=C1C[C@H](CCC(=O)OCc2ccccc2)NC(=O)C[C@H](CCC(=O)OCc2ccccc2)NC(=O)C[C@H](CCC(=O)OCc2ccccc2)N1 | > 100 µM | > 100 µM | 40.4 µM | > 100 µM | > 100 µM | > 100 µM | > 100 µM | > 100 µM | > 100 µM | 8.23 µM |  |  |  |  |  |  |  |  |  | 
C[C@]12CCC(=O)C=C1CC[C@@H]1[C@@H]2[C@@H](O)C[C@@]2(C)[C@H]1CC[C@]2(O)C(=O)COC(=O)C1CCCC1 | > 100 µM | > 100 µM | > 100 µM | > 100 µM | > 100 µM | > 100 µM | > 100 µM | > 100 µM | > 100 µM | > 100 µM |  |  |  |  |  |  |  |  |  | 
CNC(=O)Nc1ccccc1 | > 100 µM | > 100 µM | > 100 µM | > 100 µM | > 100 µM | > 100 µM | > 100 µM | > 100 µM | > 100 µM | > 100 µM |  |  |  |  |  |  |  |  |  | 
CC(=O)C1=C(O)CCC1=O | > 100 µM | > 100 µM | > 100 µM | > 100 µM | > 100 µM | > 100 µM | > 100 µM | > 100 µM | > 100 µM | > 100 µM |  |  |  |  |  |  |  |  |  | 
C[N+](C)(CCO)CCN1c2ccccc2Sc2ccccc21 | > 10 µM | > 10 µM | > 10 µM | > 10 µM | > 10 µM | > 10 µM | > 10 µM | > 10 µM | > 10 µM | > 10 µM |  |  |  |  |  |  |  |  |  | 
Cc1nnc2n1N=C(c1cc(F)c(Cl)cc1Cl)/C(=C/c1ccc3c(c1)OCO3)S2 | > 100 µM |  | > 100 µM | > 100 µM | > 100 µM | > 100 µM | > 100 µM | > 100 µM | > 100 µM | > 100 µM |  |  |  |  |  |  |  |  |  | 
COc1ccc(C2=NN(C(=O)c3cccnc3)C(O)(c3cc(F)c(Cl)cc3Cl)C2)cc1OC (stereo not drawn) | 47.7 µM | 53.7 µM | 33.5 µM | 66.9 µM | > 100 µM | > 100 µM | 34.9 µM | 34.6 µM | 71.7 µM | 33.5 µM |  |  |  |  |  |  |  |  |  | 
COc1ccc(C2C(C=O)C(N3CCN(C)CC3)=Nc3nc4ccccc4n32)cc1 (stereo not drawn) | 28.7 µM | 2.35 µM | 54.5 µM | > 100 µM | 17.8 µM | 49.3 µM | 36.8 µM | 41.5 µM | 44.8 µM | 39.2 µM |  |  |  |  |  |  |  |  |  | 
NC(CC(=O)O)(Cc1ccccc1)C(=O)O (stereo not drawn) | > 100 µM | > 100 µM | > 100 µM | > 100 µM | > 100 µM | > 100 µM | > 100 µM | > 100 µM | > 100 µM | > 100 µM |  |  |  |  |  |  |  |  |  | 
O=C(NNC(=O)c1nsc2ccccc12)c1ccc(Cl)cc1 | 33.7 µM | 75.5 µM | 41.9 µM |  | 38.1 µM |  | 41.8 µM | 36.9 µM | 59.9 µM | 30.3 µM |  |  |  |  |  |  |  |  |  | 
Cc1ccc(SSCCCCCS(=O)O)cc1 | 56.4 µM | 28.9 µM | 30.3 µM |  | > 100 µM |  | > 100 µM | > 100 µM | 88.9 µM | 43.3 µM |  |  |  |  |  |  |  |  |  | 
COc1ccc(C)cc1Nc1nnc(-c2ccc(N)cc2)s1 | > 100 µM | > 100 µM | > 100 µM | > 100 µM | > 100 µM | > 100 µM | > 100 µM | > 100 µM | > 100 µM | > 100 µM |  |  |  |  |  |  |  |  |  | 
CN(C)CCCN1c2ccccc2CCc2cc([N+](=O)[O-])ccc21 | 48.6 µM and 30 µM | 90.6 µM and 44 µM | 74.5 µM and 31.4 µM | 71.9 µM and 34.3 µM | > 100 µM and 27 µM | 58.9 µM and 34.6 µM | 41.6 µM and 32.8 µM | 38.1 µM and 31.1 µM | 54.1 µM and 36.7 µM | 32.8 µM and 26 µM |  |  |  |  | 43.8 µM and 10.7 µM |  |  |  |  | 
CCOC(=O)c1c(CN2CCCC2)n(-c2ccccc2)c2cc(Br)c(OC)cc12 | 22.5 µM | 25 µM | 72.6 µM | > 100 µM | 30.6 µM | 69.2 µM | 24 µM | 36.6 µM | 63.3 µM | 17.5 µM |  |  |  |  |  |  |  |  |  | 
COc1cc2c(cc1OC)-c1cc3ccc(OC)c(OC)c3c[n+]1CC2 | > 100 µM | > 100 µM | > 100 µM | > 100 µM | > 100 µM | > 100 µM | > 100 µM | > 100 µM |  | > 100 µM |  |  |  |  |  |  |  |  |  | 
